Converted amounts (≈) assume the structure as drawn.
Key:
Steryl-sulfatase [1] = target: T1, Steryl-sulfatase (Homo sapiens, UniProt P08842); assay: Inhibition of human STS expressed in human T47D cells using [3H]E1S as substrate incubated for 1 hr followed by substrate addition measured after 24 hrs in presence of E1S by HPLC analysis; format: cell-based
T1 sequence (P08842 whole entry): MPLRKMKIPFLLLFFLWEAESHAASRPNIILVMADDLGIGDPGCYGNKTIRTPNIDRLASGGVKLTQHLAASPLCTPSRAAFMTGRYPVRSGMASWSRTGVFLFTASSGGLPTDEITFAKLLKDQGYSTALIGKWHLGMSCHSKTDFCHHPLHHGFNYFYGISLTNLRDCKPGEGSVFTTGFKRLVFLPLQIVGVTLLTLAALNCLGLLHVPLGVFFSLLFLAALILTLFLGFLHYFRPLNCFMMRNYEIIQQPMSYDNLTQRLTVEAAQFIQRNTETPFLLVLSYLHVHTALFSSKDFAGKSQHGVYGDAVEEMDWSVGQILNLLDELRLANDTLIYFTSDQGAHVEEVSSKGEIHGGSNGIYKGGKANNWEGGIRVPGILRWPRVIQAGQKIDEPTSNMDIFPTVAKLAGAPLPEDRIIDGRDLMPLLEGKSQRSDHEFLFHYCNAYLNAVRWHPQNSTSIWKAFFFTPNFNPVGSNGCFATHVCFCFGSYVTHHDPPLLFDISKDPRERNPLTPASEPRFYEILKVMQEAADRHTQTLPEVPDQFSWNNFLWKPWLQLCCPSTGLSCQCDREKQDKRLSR

[2] = target: T2, 17-beta-hydroxysteroid dehydrogenase type 1 (Homo sapiens, UniProt P14061); assay: Inhibition of human 17beta-HSD1 expressed in human T47D cells using [3H]E1 as substrate incubated for 1 hr followed by substrate addition measured after 40 mins in presence of E1 by HPLC analysis; format: cell-based
T2 sequence (P14061 whole entry): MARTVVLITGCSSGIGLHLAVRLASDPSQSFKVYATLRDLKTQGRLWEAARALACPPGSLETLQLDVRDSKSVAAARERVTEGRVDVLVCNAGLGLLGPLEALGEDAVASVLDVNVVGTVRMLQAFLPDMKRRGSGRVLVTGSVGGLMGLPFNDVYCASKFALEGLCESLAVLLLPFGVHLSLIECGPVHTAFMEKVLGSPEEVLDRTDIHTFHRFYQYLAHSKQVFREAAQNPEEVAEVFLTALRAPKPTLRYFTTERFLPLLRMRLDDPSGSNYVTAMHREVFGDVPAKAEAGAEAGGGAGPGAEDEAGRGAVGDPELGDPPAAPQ

[3] = target: T2, 17-beta-hydroxysteroid dehydrogenase type 1; assay: Inhibition of human placental cytosolic fraction 17beta-HSD1 using [3H]E1 as substrate measured after 10 mins in presence of NADH by HPLC analysis; format: tissue-based, Placenta
[4] = target: T3, 17-beta-hydroxysteroid dehydrogenase type 2 (Homo sapiens, UniProt P37059); assay: Inhibition of human placental microsomal fraction 17beta-HSD2 using [3H]E2 as substrate measured after 20 mins in presence of NAD+ by HPLC analysis; format: microsomes, Placenta, Microsome
T3 sequence (P37059 whole entry): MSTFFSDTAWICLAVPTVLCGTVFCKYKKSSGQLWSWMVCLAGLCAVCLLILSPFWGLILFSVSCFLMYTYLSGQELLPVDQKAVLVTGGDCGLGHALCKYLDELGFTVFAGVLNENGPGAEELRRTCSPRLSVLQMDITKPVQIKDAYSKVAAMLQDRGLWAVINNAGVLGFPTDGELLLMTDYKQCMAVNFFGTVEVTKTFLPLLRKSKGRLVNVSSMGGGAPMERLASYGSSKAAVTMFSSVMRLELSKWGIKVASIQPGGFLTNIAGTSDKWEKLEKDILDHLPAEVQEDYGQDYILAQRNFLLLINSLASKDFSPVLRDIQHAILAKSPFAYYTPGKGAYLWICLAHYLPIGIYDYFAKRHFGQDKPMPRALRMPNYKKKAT

Homo sapiens [5] = species on record: Homo sapiens; assay: Selectivity ratio of IC50 for human placental microsomal fraction 17beta-HSD2 to IC50 for human placental microsomal fraction 17beta-HSD1
[6] = Metabolic stability in human liver S9 fraction assessed as half life measured upto 60 mins in presence of NADPH by LC-MS/MS analysis; format: ADME, subcellular; conditions: for half-life: liver S9 fraction
[7] = Metabolic stability in mouse liver S9 fraction assessed as half life measured upto 60 mins in presence of NADPH by LC-MS/MS analysis; format: ADME, subcellular; conditions: for half-life: liver S9 fraction
Steryl-sulfatase [8] = target: T1, Steryl-sulfatase; assay: Irreversible inhibition of human STS expressed in human T47D cells using [3H]E1S as substrate preincubated for 2 hr followed by substrate addition measured after 24 hrs in presence of E1S by HPLC analysis; format: cell-based
[9] = Metabolic stability in human liver S9 fraction assessed as intrinsic clearance measured upto 60 mins in presence of NADPH by LC-MS/MS analysis; format: ADME, subcellular; conditions: read-out: CLH
HEK293 = assay: Cytotoxicity against HEK293 cells assessed as cell growth inhibition by measuring lethal concentration measured after 72 hrs by MTT assay; format: functional, Homo sapiens
HepG2 = assay: Cytotoxicity against human HepG2 cells assessed as cell growth inhibition by measuring lethal concentration measured after 48 hrs by MTT assay; format: functional
[10] = target: T4, Aryl hydrocarbon receptor (Homo sapiens, UniProt P35869); assay: Activation of AhR in human HepG2 cells assessed as increase in CYP1A1 activity at 3.16 uM measured after 48 hrs by fluorescence based analysis; format: cell-based; conditions: hepg2, 48 h
T4 sequence (P35869 whole entry): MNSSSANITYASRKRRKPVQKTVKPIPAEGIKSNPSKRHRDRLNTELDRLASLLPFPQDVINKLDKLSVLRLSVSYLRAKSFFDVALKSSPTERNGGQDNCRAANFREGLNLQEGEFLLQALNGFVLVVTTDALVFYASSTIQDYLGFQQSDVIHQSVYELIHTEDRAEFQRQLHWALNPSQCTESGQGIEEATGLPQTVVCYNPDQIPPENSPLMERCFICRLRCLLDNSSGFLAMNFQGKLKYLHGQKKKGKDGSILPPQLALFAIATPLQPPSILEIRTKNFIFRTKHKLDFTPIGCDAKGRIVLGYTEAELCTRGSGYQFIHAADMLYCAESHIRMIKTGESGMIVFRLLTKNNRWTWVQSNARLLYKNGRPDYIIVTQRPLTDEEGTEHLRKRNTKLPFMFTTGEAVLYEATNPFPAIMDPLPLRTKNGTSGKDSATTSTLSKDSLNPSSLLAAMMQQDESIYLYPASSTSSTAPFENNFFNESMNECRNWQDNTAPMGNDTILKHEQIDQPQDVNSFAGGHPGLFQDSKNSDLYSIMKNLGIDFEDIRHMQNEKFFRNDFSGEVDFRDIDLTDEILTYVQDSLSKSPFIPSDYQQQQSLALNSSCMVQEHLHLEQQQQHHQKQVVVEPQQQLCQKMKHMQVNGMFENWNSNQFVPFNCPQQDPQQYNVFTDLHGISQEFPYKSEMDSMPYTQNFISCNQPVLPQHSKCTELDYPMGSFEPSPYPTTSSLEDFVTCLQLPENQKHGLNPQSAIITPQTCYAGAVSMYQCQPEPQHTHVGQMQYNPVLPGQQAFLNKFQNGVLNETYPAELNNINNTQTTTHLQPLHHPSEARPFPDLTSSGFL

[11] = Observed Cmax in C57BL/6 mouse at 50 mg/kg, sc administered as single dose measured upto 24 hrs by HPLC-MS/MS analysis; format: ADME, organism-based; set-up: time < 24 hrs, dose 50 mg/kg, route sc; conditions: in vivo
[12] = Drug concentration in C57BL/6 mouse at 50 mg/kg, sc administered as single dose measured after 24 hrs by HPLC-MS/MS analysis; format: ADME, organism-based; conditions: in vivo, read-out: Drug uptake
[13] = Half life in C57BL/6 mouse at 50 mg/kg, sc administered as single dose measured after 24 hrs by HPLC-MS/MS analysis; format: ADME, organism-based; conditions: in vivo
[14] = AUC(0 to 24 hrs) in C57BL/6 mouse at 50 mg/kg, sc administered as single dose measured after 24 hrs by HPLC-MS/MS analysis; format: ADME, organism-based; set-up: time 24 hrs, dose 50 mg/kg, route sc; conditions: in vivo
[15] = Lipophilicity, logD of compound at pH 7.4; format: physicochemical; conditions: buffer
[16] = Aqueous solubility of compound in PBS measured after 1 to 24 hrs; format: physicochemical; conditions: time 1-24 hrs
[17] = Oral bioavailability in C57BL/6 mouse at 50 mg/kg administered as single dose measured after 24 hrs by HPLC-MS/MS analysis; format: ADME, organism-based; conditions: in vivo
[18] = Cmax in C57BL/6 mouse at 50 mg/kg, sc administered as single dose ever day measured after 2 hrs by HPLC-MS/MS analysis; format: ADME, organism-based; set-up: dose 50 mg/kg, time 2 hrs, route sc; conditions: in vivo
[19] = Cmin in C57BL/6 mouse at 50 mg/kg, sc administered as single dose ever day measured after 24 hrs by HPLC-MS/MS analysis; format: ADME, organism-based; conditions: in vivo, read-out: Cmin
Homo sapiens [20] = species on record: Homo sapiens; assay: Selectivity ratio of IC50 for human 17beta-HSD2 to IC50 for human 17beta-HSD1
[21] = target: T5, Steryl-sulfatase (Homo sapiens) (UniProt P08842); assay: Inhibition of human STS expressed in human T47D cells at 1 uM using [3H]E1S as substrate incubated for 1 hr followed by substrate addition measured after 24 hrs in presence of E1S by HPLC analysis relative to control; format: cell-based; conditions: time 25.0 hrs
T5 sequence (whole entry): T1 sequence (P08842 whole entry)

Row | Compound | IC50 (Steryl-sulfatase [1]) [nM] | IC50 [2] [nM] | IC50 [3] [nM] | IC50 [4] [nM] | Ratio IC50 (Homo sapiens [5]) | half-life [6] [min] | half-life [7] [min] | microsomal CLint [9] [µL/min/mg] | further results
1 | Cc1cc(-c2ccc(C(=O)N(C)c3ccc(OS(N)(=O)=O)cc3)o2)cc(C)c1O | 150 | 110 | 430 | 7700 | 18 |  |  |  | 
2 | Cc1cc(-c2ccc(C(=O)N(C)c3cccc(OS(N)(=O)=O)c3)o2)cc(C)c1O | 92 | 80 | 180 | 6400 | 36 |  |  |  | 
3 | Cc1cc(OS(N)(=O)=O)ccc1N(C)C(=O)c1ccc(-c2cc(C)c(O)c(C)c2)o1 | 400 | 11 | 43 | 6200 | 145 | 85.2 | 56.1 | 8.2 | IC50 (Steryl-sulfatase [8]): 420 nM; LC20 (HEK293): <=31 uM; LC20 (HepG2): 23000 nM; Activity [10]: Not Active; Cmax [11]: 2820 nM; concentration at 24 h [12]: 797 nM; half-life [13]: 229 min; AUC(0-t) at 24 h [14]: 11600 ng·h/mL; logD [15]: 2.2; solubility [16]: 40 µM (≈ 17.2 µg/mL); bioavailability [17]: 1.5%; Cmax [18]: 2350 nM; concentration at 24 h [19]: 800 nM
4 | O=C(c1ccc(-c2ccc(O)cc2)s1)c1c(F)ccc(O)c1F |  |  |  |  |  | < 5 |  |  | Ratio IC50 (Homo sapiens [20]): 24
5 | C[C@]12CC[C@H]3[C@@H](CCC4=CC(=O)CC[C@@]43C)[C@@H]1CC[C@@H]2O [TESTOSTERONE] |  |  |  |  |  |  |  | 74.5 | 
6 | Cc1cc(-c2ccc(C(=O)N(C)c3cccc(OS(N)(=O)=O)c3C)o2)cc(C)c1O |  | 58 |  |  |  |  |  |  | inhibition [21]: < 10%
7 | Cc1cc(-c2ccc(C(=O)N(C)c3ccc(OS(N)(=O)=O)c(F)c3)o2)cc(C)c1O | 83 | 140 | 500 | 3200 | 6 |  |  |  | 
8 | Cc1ccc(OS(N)(=O)=O)cc1N(C)C(=O)c1ccc(-c2cc(C)c(O)c(C)c2)o1 | 450 | 3.2 | 16 | 4400 | 275 | 19.3 | 28.5 | 35.9 | IC50 (Steryl-sulfatase [8]): 460 nM; LC20 (HEK293): <=38 uM; LC20 (HepG2): 28000 nM; Activity [10]: Not Active; Cmax [11]: 517 nM; concentration at 24 h [12]: 49 nM; half-life [13]: 129 min; AUC(0-t) at 24 h [14]: 1900 ng·h/mL; logD [15]: 2.68; solubility [16]: 20 µM (≈ 8.61 µg/mL)
9 | Cc1cc(-c2ccc(C(=O)N(C)c3ccc(OS(N)(=O)=O)c(Cl)c3)o2)cc(C)c1O | 38 | 88 | 400 | 2400 | 6 |  |  |  | 
10 | NS(=O)(=O)Oc1ccc(-c2ccc(C(=O)c3c(F)ccc(O)c3F)s2)cc1Cl | 15 |  |  |  | 33 | < 5 | < 5 |  | Ratio IC50 (Homo sapiens [20]): 36
11 | O=c1ccc2ccc(O)cc2o1 [UMBELLIFERONE] |  |  |  |  |  |  |  | 139 | 
12 | Cc1ccccc1N(C)C(=O)c1ccc(-c2cc(C)c(O)c(C)c2)o1 |  | 2.9 |  |  | 570 | 38 | 19 | 18.2 | Ratio IC50 (Homo sapiens [20]): 563; t1/2 ([6]; s9, 1 h, 1 h): 38.1 min; t1/2 ([7]; s9, 1 h, 1 h): 19.1 min; inhibition [21]: < 10%
13 | Cc1cc(OS(N)(=O)=O)c(Cl)cc1N(C)C(=O)c1ccc(-c2cc(C)c(O)c(C)c2)o1 | 76 | 53 | 68 | 7500 | 110 | 35.6 | 22.5 | 19.4 | IC50 (Steryl-sulfatase [8]): 79 nM; LC20 (HEK293): <=27 uM; LC20 (HepG2): 31000 nM; Cmax [11]: 400 nM; concentration at 24 h [12]: 62 nM; half-life [13]: 169 min; AUC(0-t) at 24 h [14]: 1900 ng·h/mL; logD [15]: 2.75; solubility [16]: 20 µM (≈ 9.3 µg/mL)
14 | Cc1cc(-c2ccc(C(=O)N(C)c3c(C)cccc3OS(N)(=O)=O)o2)cc(C)c1O |  | 140 |  |  |  |  |  |  | inhibition [21]: < 10%; Activity [10]: Not Active
